Experimental data from patent EP0973746B1, “SUBSTITUTED 3-CYANO QUINOLINES” (Wyeth Holdings Corporation, priority 1997, dated 1998).
In brackets after ≈: the same amount, converted by molar mass. Where two headings read alike, the source gives them in different places.

What was measured:
A549 = test: Inhibition of cancer cell growth as measured by cell number, A549; assay type: cell-based; details: Homo sapiens, A549, 48 h, read-out: IC50 A549
SW948 = test: Inhibition of cancer cell growth as measured by cell number, SW948; assay type: cell-based; details: Homo sapiens, SW948, 48 h, read-out: IC50 SW948
[1] = target: recombinant human MEK 1 (MAPKK) and recombinant human ERK2 (MAPK); test: Mitogen Activated Protein Kinase (MAPK) assay, two component coupled MEK 1 / ERK2; assay type: biochemical; details: separate entries for the same compound = evaluated more than one time;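 also: MEK 1-activated ERK2 phosphorylates MBP or Myc peptide with 33P-ATP, filter capture and scintillation counting, inhibitor preincubated with ERK2 30 min at 0 °C, inhibition relative to uninhibited control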
PC3 = test: Inhibition of cancer cell growth as measured by cell number, PC3; assay type: cell-based; details: Homo sapiens, PC-3, 48 h, read-out: IC50 PC3
SW620 = test: Inhibition of cancer cell growth as measured by cell number, SW620; assay type: cell-based, human; details: Homo sapiens, SW-620, 48 h;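 also: SW620 was included as a cell line with little or no EGFR or HER2/neu expression, in contrast to receptor-overexpressing lines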
Text: (§1) The cell lines were chosen since they overexpressed epidermal growth factor receptor (EGFR) (i.e. A431) or HER2/neu (SKBR3), or had little to no expression of the these receptors (SW620, LOX, MCF7).

CACO2 = test: Inhibition of cancer cell growth as measured by cell number, CACO2; assay type: cell-based; details: Homo sapiens, Caco-2, 48 h, read-out: IC50 CACO2
MIP = test: Inhibition of cancer cell growth as measured by cell number, MIP; assay type: cell-based; details: Homo sapiens; cell number, Sulforhodamine B, 48 hours exposure; Table 4; read-out: IC50 MIP
COLO205 = test: Inhibition of cancer cell growth as measured by cell number, COLO205; assay type: cell-based; details: Homo sapiens, COLO 205, 48 h, read-out: IC50 COLO205
A431 = test: Inhibition of cancer cell growth as measured by cell number, A431; assay type: cell-based, human; details: Homo sapiens, A-431, 48 h, read-out: IC50 A431, cell number, Sulforhodamine B, 48 hours exposure; Table 6;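 also: human A431 line, picked because it overexpresses epidermal growth factor receptor (EGFR)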
Text: as §1

B7474 = test: Inhibition of cancer cell growth as measured by cell number, B7474; assay type: cell-based; details: Homo sapiens, 48 h, read-out: IC50 B7474
NEC = test: Inhibition of cancer cell growth as measured by cell number, NEC; assay type: cell-based; details: Homo sapiens, 48 h, read-out: IC50 NEC
LOX = test: Inhibition of cancer cell growth as measured by cell number, LOX; assay type: cell-based, human; details: Homo sapiens, LOX, 48 h, read-out: IC50 LOX, cell number, Sulforhodamine B, 48 hours exposure; Table 6;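 also: LOX cells served as a line with low or absent EGFR and HER2/neu expression, in contrast to receptor-overexpressing lines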
Text: as §1

A2780DDP = test: Inhibition of cancer cell growth as measured by cell number, A2780DDP; assay type: cell-based; details: Homo sapiens, 48 h, read-out: IC50 A2780DDP
HTB161 = test: Inhibition of cancer cell growth as measured by cell number, HTB161; assay type: cell-based; details: Homo sapiens, 48 h, read-out: IC50 HTB161
HCT15 = test: Inhibition of cancer cell growth as measured by cell number, HCT15; assay type: cell-based; details: Homo sapiens, HCT-15, 48 h, read-out: IC50 HCT15
LS174T = test: Inhibition of cancer cell growth as measured by cell number, LS174T; assay type: cell-based; details: Homo sapiens, 48 h, read-out: IC50 LS174T
DU145 = test: Inhibition of cancer cell growth as measured by cell number, DU145; assay type: cell-based; details: Homo sapiens, DU-145, 48 h, read-out: IC50 DU145
CCRF-CFM = test: Inhibition of cancer cell growth as measured by cell number, CCRF-CFM; assay type: cell-based; details: Homo sapiens, 48 h, read-out: IC50 CCRF-CFM
HL60 = test: Inhibition of cancer cell growth as measured by cell number, HL60; assay type: cell-based; details: Homo sapiens, HL-60, 48 h, read-out: IC50 HL60
T47D = test: Inhibition of cancer cell growth as measured by cell number, T47D; assay type: cell-based; details: Homo sapiens, 48 h, read-out: IC50 T47D
MCF7 = test: Inhibition of cancer cell growth as measured by cell number, MCF7; assay type: cell-based, human; details: Homo sapiens, MCF7, 48 h, read-out: IC50 MCF7, cell number, Sulforhodamine B, 48 hours exposure; Table 5;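 also: MCF7 was included as a line with little or no EGFR or HER2/neu expression, in contrast to the receptor-overexpressing lines of the panel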
Text: as §1

LNCAP = test: Inhibition of cancer cell growth as measured by cell number, LNCAP; assay type: cell-based; details: Homo sapiens, 48 h, read-out: IC50 LNCAP
LX1 = test: Inhibition of cancer cell growth as measured by cell number, LX1; assay type: cell-based; details: Homo sapiens, LX-1, 48 h, read-out: IC50 LX1
SKBR3 = test: Inhibition of cancer cell growth as measured by cell number, SKBR3; assay type: cell-based, human; details: Homo sapiens, SK-BR-3, 48 h, read-out: IC50 SKBR3, cell number, Sulforhodamine B, 48 hours exposure; Table 7;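 also: SK-BR-3 cells were selected as a line overexpressing HER2/neu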
Text: as §1

CCL228 = test: Inhibition of cancer cell growth as measured by cell number, CCL228; assay type: cell-based; details: Homo sapiens, 48 h, read-out: IC50 CCL228
A27805 = test: Inhibition of cancer cell growth as measured by cell number, A27805; assay type: cell-based; details: Homo sapiens, 48 h, read-out: IC50 A27805
CX1 = test: Inhibition of cancer cell growth as measured by cell number, CX1; assay type: cell-based; details: Homo sapiens, CX-1, 48 h, read-out: IC50 CX1
[2] = target: T1, Kinase insert Domain containing Receptor (KDR: the catalytic domain of the VEGF receptor) (Homo sapiens, UniProt P35968); test: Inhibition of Kinase insert Domain containing Receptor (KDR); assay type: biochemical; details: pH 7.2; radioactive format; read-out: KDR IC50 (converted);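 also: KDR phosphorylating a Glu:Tyr 4:1 copolymer with P32- or P33-labelled ATP, Mg++ and vanadate, read as acid-insoluble radiolabel, compared with compound-free reaction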
T1 construct: KDR: the catalytic domain of the VEGF receptor

[3] = target: Epithelial Cell Kinase (ECK) (Homo sapiens, UniProt P29317); test: biochemical
Experimental: In this standard pharmacological test procedure, a biotinylated peptide substrate is first immobilized on neutravidin-coated microtiter plates. The test drug, the Epithelial Cell Kinase (ECK), Mg^++, sodium vanadate (a protein tyrosine phosphatase inhibitor), and an appropriate buffer to maintain pH (7.2) are then added to the immobilized substrate-containing microtiter wells. ATP is then added to initiate phosphorylation. After incubation, the assay plates are washed with a suitable buffer leaving behind phosphorylated peptide which is exposed to horse radish peroxidase (HRP)-conjugated anti-phosphotyrosine monoclonal antibody. The antibody-treated plates are washed again and the HRP activity in individual wells is quantified as a reflection of degree of substrate phosphorylation.

[4] = target: epidermal growth factor receptor kinase (Homo sapiens, UniProt P00533); test: biochemical
[5] = read-out: IC50 SW620, cell number, Sulforhodamine B, 48 hours exposure, Table 4

epidermal growth factor receptor kinase, sequence (P00533 25-1210): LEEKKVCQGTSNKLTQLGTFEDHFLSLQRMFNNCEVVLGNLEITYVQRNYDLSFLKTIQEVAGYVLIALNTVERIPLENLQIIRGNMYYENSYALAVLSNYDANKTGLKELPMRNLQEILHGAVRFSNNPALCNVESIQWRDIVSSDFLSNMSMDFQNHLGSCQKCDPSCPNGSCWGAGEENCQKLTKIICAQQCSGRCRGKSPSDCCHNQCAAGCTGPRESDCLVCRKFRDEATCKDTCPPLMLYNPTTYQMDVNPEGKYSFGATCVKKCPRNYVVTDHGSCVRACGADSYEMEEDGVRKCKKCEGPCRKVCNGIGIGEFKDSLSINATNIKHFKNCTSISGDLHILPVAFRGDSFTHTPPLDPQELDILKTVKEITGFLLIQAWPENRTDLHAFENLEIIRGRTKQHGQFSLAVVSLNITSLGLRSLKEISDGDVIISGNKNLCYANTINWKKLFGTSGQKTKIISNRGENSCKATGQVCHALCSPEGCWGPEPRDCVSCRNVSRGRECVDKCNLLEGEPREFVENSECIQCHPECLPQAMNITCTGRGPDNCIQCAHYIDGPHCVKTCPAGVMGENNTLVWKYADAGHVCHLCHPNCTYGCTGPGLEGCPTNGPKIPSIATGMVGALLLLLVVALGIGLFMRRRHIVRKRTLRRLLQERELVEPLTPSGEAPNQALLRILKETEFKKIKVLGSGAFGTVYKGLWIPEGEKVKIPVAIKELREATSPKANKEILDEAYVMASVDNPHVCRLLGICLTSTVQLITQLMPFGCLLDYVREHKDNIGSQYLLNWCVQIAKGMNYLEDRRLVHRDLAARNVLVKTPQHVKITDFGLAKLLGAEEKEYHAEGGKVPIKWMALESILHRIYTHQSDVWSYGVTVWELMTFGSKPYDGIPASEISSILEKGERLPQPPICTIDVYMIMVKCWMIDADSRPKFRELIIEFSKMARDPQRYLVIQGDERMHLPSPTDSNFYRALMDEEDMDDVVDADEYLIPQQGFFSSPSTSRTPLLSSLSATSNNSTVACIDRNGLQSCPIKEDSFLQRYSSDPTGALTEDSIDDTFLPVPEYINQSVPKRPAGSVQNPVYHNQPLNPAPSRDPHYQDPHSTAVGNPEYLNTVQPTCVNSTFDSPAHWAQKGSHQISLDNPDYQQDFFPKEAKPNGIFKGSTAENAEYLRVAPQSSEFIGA
T1 sequence (P35968 834-1162 limits assumed): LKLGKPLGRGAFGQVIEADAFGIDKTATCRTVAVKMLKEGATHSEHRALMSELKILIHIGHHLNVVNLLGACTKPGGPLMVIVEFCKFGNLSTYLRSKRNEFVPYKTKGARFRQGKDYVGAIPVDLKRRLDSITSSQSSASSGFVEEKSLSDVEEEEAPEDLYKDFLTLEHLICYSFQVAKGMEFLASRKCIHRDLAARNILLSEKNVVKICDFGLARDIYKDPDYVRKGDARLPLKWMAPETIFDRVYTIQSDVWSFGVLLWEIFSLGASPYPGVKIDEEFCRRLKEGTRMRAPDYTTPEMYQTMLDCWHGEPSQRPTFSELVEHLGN
Epithelial Cell Kinase (ECK), sequence (P29317 24-976, species assumed): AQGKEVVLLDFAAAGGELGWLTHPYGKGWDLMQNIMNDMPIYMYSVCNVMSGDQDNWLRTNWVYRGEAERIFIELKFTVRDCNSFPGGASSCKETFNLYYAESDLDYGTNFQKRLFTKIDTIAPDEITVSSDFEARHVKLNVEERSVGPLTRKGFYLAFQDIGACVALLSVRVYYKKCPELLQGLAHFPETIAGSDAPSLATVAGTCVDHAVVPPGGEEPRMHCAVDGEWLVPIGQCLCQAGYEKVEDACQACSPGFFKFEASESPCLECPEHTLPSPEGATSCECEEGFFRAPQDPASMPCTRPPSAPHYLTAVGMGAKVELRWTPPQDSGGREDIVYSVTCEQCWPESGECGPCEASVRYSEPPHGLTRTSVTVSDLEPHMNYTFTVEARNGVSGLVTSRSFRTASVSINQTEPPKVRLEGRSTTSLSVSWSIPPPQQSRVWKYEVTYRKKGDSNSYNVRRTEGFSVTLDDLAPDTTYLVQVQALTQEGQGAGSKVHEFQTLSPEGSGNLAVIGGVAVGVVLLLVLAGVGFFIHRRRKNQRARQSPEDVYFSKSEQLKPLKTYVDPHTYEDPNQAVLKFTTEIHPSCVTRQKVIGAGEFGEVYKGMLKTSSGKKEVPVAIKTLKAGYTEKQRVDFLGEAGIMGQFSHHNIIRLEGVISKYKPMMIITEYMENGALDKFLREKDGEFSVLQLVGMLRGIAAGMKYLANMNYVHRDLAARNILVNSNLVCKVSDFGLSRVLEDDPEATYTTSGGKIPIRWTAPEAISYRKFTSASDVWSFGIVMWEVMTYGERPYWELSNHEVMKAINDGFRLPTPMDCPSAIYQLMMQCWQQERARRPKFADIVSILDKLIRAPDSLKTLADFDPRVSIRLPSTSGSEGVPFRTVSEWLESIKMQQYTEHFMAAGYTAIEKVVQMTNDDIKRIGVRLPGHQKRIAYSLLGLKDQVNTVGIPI

| SMILES | IC50 (A549) [µg/mL] | IC50 (SW948) [µg/mL] | IC50 [1] [µM] | IC50 (PC3) [µg/mL] | IC50 (SW620; [5]) [µg/mL] | IC50 (COLO205) [µg/mL] | IC50 (B7474) [µg/mL] | IC50 (NEC) [µg/mL] | IC50 (LOX) [µg/mL] | IC50 (LS174T) [µg/mL] | IC50 (CCRF-CFM) [µg/mL] | IC50 (T47D) [µg/mL] | IC50 (MCF7) [µg/mL] | IC50 (LNCAP) [µg/mL] | IC50 (LX1) [µg/mL] | IC50 (SKBR3) [µg/mL] | IC50 (CCL228) [µg/mL] | IC50 (CX1) [µg/mL] | other results |
| --- | --- | --- | --- | --- | --- | --- | --- | --- | --- | --- | --- | --- | --- | --- | --- | --- | --- | --- | --- |
| COc1cc2ncc(C#N)c(Nc3cccc(Br)c3)c2cc1[N+](=O)[O-] [Example 6] | 4.45 (≈ 11.1 µM) | 5.2 (≈ 13 µM) | > 100 | 4.69 (≈ 11.7 µM) | 4.71 (≈ 11.8 µM) | 5.51 (≈ 13.8 µM) | 3.76 (≈ 9.41 µM) | 4.17 (≈ 10.4 µM) | 0.813 (≈ 2.04 µM) | 2.67 (≈ 6.7 µM) | 2.57 (≈ 6.44 µM) | 3.26 (≈ 8.18 µM) | 4.27 (≈ 10.7 µM) | 4.19 (≈ 10.5 µM) | 5.55 (≈ 13.9 µM) | 4.2 (≈ 10.5 µM) | 2.35 (≈ 5.88 µM) | 3.02 (≈ 7.58 µM) | IC50 (CACO2): 0.808 µg/mL (≈ 2.02 µM); IC50 (MIP): 0.95 µg/mL (≈ 2.38 µM); IC50 (A431): 0.845 µg/mL (≈ 2.12 µM); IC50 (A2780DDP): 3.22 µg/mL (≈ 8.06 µM); IC50 (HTB161): 1.66 µg/mL (≈ 4.15 µM); IC50 (HCT15): 1.75 µg/mL (≈ 4.38 µM); IC50 (DU145): 1.03 µg/mL (≈ 2.59 µM); IC50 (HL60): 0.947 µg/mL (≈ 2.37 µM); IC50 (A27805): 2.49 µg/mL (≈ 6.23 µM) |
| C=CC(=O)Nc1cc2c(Nc3cccc(Br)c3)c(C#N)cnc2cc1OC [Example 9, N-[4-[(3-Bromophenyl)amino]-3-cyano-7-methoxy-6-quinolinyl]-2-propenamide] | 2.92 (≈ 6.89 µM) | 3.3 (≈ 7.8 µM) | > 100 | 1.66 (≈ 3.92 µM) | 1.94 (≈ 4.58 µM) | 2.56 (≈ 6.06 µM) | 0.443 (≈ 1.05 µM) | 0.952 (≈ 2.25 µM) | 0.438 (≈ 1.04 µM) | 0.712 (≈ 1.68 µM) | 0.551 (≈ 1.3 µM) | 0.838 (≈ 1.98 µM) | 3.25 (≈ 7.69 µM) | 0.661 (≈ 1.56 µM) | 0.0672 (≈ 0.159 µM) | 0.862 (≈ 2.04 µM) | 0.707 (≈ 1.67 µM) | 0.91 (≈ 2.15 µM) | IC50 (CACO2): 0.341 µg/mL (≈ 0.805 µM); IC50 (MIP): 0.731 µg/mL (≈ 1.73 µM); IC50 (A431): 0.433 µg/mL (≈ 1.02 µM); IC50 [2]: > 70.9 µM; IC50 (A2780DDP): 0.513 µg/mL (≈ 1.21 µM); IC50 (HTB161): 0.341 µg/mL (≈ 0.806 µM); IC50 (HCT15): 0.984 µg/mL (≈ 2.33 µM); IC50 (DU145): 0.388 µg/mL (≈ 0.916 µM); IC50 (HL60): 0.758 µg/mL (≈ 1.79 µM); IC50 (A27805): 0.542 µg/mL (≈ 1.28 µM) |
| N#Cc1cnc2ccc([N+](=O)[O-])cc2c1Nc1cccc(C(F)(F)F)c1 [Example 23, 6-Nitro-4[(3-trifluoromethylphenyl)amino]-3-quinolinecarbonitrile] | – | > 100 | > 100 | – | – | > 100 | – | – | – | – | – | – | – | – | – | – | – | – | IC50 (SW620; read-out: IC50 SW620): > 100 µg/mL; IC50 [3]: 27.9 µM |
| COc1cc2ncc(C#N)c(Nc3cccc(C(F)(F)F)c3)c2cc1OC [Example 42, 4-[(3-Trifluoromethylphenyl)amino]-6,7-dimethoxy-3-quinolinecarbonitrile] | – | – | – | – | 31.2 (≈ 83.5 µM) | – | 6.78 (≈ 18.2 µM) | 6.47 (≈ 17.3 µM) | – | 5.97 (≈ 16 µM) | 5.23 (≈ 14 µM) | 6.78 (≈ 18.2 µM) | 6.14 (≈ 16.5 µM) | – | – | 12.5 (≈ 33.6 µM) | – | – | – |
| COc1ccc(Nc2c(C#N)cnc3cc(OC)c(OC)cc23)cc1OC [Example 43, 4-[(3,4-Dimethoxyphenyl)amino]-6,7-dimethoxy-3-quinolinecarbonitrile] | – | – | 30 | – | 4.33 (≈ 11.8 µM) | – | – | – | 2.86 (≈ 7.83 µM) | 4.22 (≈ 11.6 µM) | – | 4.5 (≈ 12.3 µM) | 5.83 (≈ 16 µM) | 4.53 (≈ 12.4 µM) | – | 5.19 (≈ 14.2 µM) | 2.56 (≈ 7 µM) | 3.43 (≈ 9.38 µM) | – |
| COc1cc2ncc(C#N)c(Nc3cccc(CO)c3)c2cc1OC [Example 48, 4-[(3-(hydroxymethyl)phenyl)amino]-6,7-dimethoxy-3-quinolinecarbonitrile] | > 100 | > 100 | – | > 100 | > 100 | – | – | > 100 | 47 (≈ 140 µM) | – | > 100 | > 100 | 79.3 (≈ 236 µM) | 40.6 (≈ 121 µM) | > 100 | 64.5 (≈ 192 µM) | > 100 | 59.2 (≈ 177 µM) | – |
| N#Cc1cnc2ccc(NC(=O)/C=C/Cl)cc2c1Nc1cccc(Br)c1 [Example 51, N-[4-[(3-Bromophenyl)amino]-3-cyano-6-quinolinyl]-3(E)-chloro-2-propenamide] | – | – | – | – | – | – | – | – | – | – | – | – | – | – | – | – | – | – | IC50 [4]: 0.05 nM |
| N#Cc1cnc2ccc(NC(=O)/C=C\Cl)cc2c1Nc1cccc(Br)c1 [Example 52, N-[4-[(3-Bromophenyl)amino]-3-cyano-6-quinolinyl]-3(Z)-chloro-2-propenamide] | – | – | – | – | – | – | – | – | – | – | – | – | – | – | – | – | – | – | IC50 [4]: 10 nM |
